In patent publication US9856242B2, “5-fluoro-N-(pyridin-2-yl)pyridin-2-amine derivatives containing a sulfone group” (Bayer Pharma Aktiengesellschaft, priority 2014, dated 2018) one finds IC50 data, which are given here for two compounds.

For one assay, the target named is T1, CDK2/CycE (Homo sapiens, UniProt P24941).
T1 construct: GST; purchased ProQinase GmbH (Freiburg, Germany); host or cells: insect cells (Sf9)
Description: CDK2/CycE high ATP kinase assay (Method 2b, TR-FRET, 2 mM ATP). It is filed as biochemical. The protocol: 2b. CDK2/CycE High ATP Kinase Assay
CDK2/CycE-inhibitory activity of compounds of the present invention at 2 mM adenosine-tri-phosphate (ATP) was quantified employing the CDK2/CycE TR-FRET (TR-FRET=Time Resolved Fluorescence Energy Transfer) assay as described in the following paragraphs.
Recombinant fusion proteins of GST and human CDK2 and of GST and human CycE, expressed in insect cells (Sf9) and purified by Glutathion-Sepharose affinity chromatography, were purchase from ProQinase GmbH (Freiburg, Germany). As substrate for the kinase reaction biotinylated peptide biotin-Ttds-YISPLKSPYKISEG (C-terminus in amid form) was used which can be purchased e.g. form the company JERINI peptide technologies (Berlin, Germany). […]
The resulting mixture was incubated 1 h at 22° C. to allow the formation of complex between the phosphorylated biotinylated peptide and the detection reagents. Subsequently the amount of phosphorylated substrate was evaluated by measurement of the resonance energy transfer from the Eu-chelate to the streptavidine-XL. Therefore, the fluorescence emissions at 620 nm and 665 nm after excitation at 350 nm wer measured in a TR-FRET reader, e.g. a Rubystar (BMG Labtechnologies, Offenburg, Germany) or a Viewlux (Perkin-Elmer). […]
For orientation: TR-FRET usually uses a lanthanide donor and a delayed reading to cut background.

The test system of a further assay is A2780 cells. Briefly: Proliferation assay (Method 3), A2780. The settings on record: A2780, 96 h; human ovarian carcinoma, 4 days, crystal violet; read-out: Inhibition of A2780 cell proliferation IC50. It is filed as cell-based. On the procedure: Cultivated tumour cells (HeLa, human cervical tumour cells, ATCC CCL-2; NCI-H460, human non-small cell lung carcinoma cells, ATCC HTB-177; A2780, human ovarian carcinoma cells, ECACC #93112519; DU 145, hormone-independent human prostate carcinoma cells, ATCC HTB-81; HeLa-MaTu-ADR, multidrug-resistant human cervical carcinoma cells, EPO-GmbH Berlin; Caco-2, human colorectal carcinoma cells, ATCC HTB-37; B16F10, mouse melanoma cells, ATCC CRL-6475) were plated at a density of 5,000 cells/well (DU145, HeLa-MaTu-ADR), 3,000 cells/well (NCI-H460, HeLa), 2,500 cells/well (A2780), 1,500 cells/well (Caco-2), or 1,000 cells/well (B16F10) in a 96-well multititer plate in 200 μL of their respective growth medium supplemented 10% fetal calf serum. […] Cell proliferation was determined by staining the cells with crystal violet: the cells were fixed by adding 20 μl/measuring point of an 11% glutaric aldehyde solution for 15 minutes at room temperature. […] The extinction was determined by photometry at a wavelength of 595 nm. The change of cell number, in percent, was calculated by normalization of the measured values to the extinction values of the zero-point plate (=0%) and the extinction of the untreated (0 μm) cells (=100%). […]

Consider `CS(=O)(=O)Cc1ccnc(Nc2cc(-c3ccc(F)c4ccoc34)c(F)cn2)c1` [Example 1, 5-Fluoro-4-(4-fluoro-1-benzofuran-7-yl)-N-{4-[(methylsulfonyl)methyl]pyridin-2-yl}pyridin-2-amine], for which, at CDK2/CycE, the IC50 turned out to be 535 nM.
Consider `CS(=O)(=O)Cc1cc(F)nc(Nc2cc(-c3ccc(F)c4ccoc34)c(F)cn2)c1` [Example 2, 5-Fluoro-4-(4-fluoro-1-benzofuran-7-yl)-N-{6-fluoro-4-[(methylsulfonyl)methyl]pyridin-2-yl}pyridin-2-amine], for which the values for the IC50 at CDK2/CycE and with A2780 cells were 517 nM and 24 nM, respectively.
